From US6251893A, “Bicyclic piperidine and piperazine compounds having 5-HT6 receptor affinity” (NPS Allelix Corp., priority 1998, dated 2001)

Tests used:
5-HT7 receptor = 5-HT7 receptor (Homo sapiens, UniProt P34969); assay: Binding to 5-HT7 receptor (selectivity); design: dose or concentration left out as unconfirmed; details: selectivity versus 5-HT6; read-out: percent inhibition for the 5-HT7 receptor
human 5HT6 receptor = human 5HT6 receptor (Homo sapiens, UniProt P50406); assay: Binding affinity for the 5-HT6 receptor (3H-LSD displacement); design: expressed in transfected cells; details: 100 nM test compound; 3H-LSD (2 nM); 60 minute incubation at 37° C; read-out: percent inhibition of radioligand binding for the 5-HT6 receptor
Sequence of human 5HT6 receptor (P50406 whole entry): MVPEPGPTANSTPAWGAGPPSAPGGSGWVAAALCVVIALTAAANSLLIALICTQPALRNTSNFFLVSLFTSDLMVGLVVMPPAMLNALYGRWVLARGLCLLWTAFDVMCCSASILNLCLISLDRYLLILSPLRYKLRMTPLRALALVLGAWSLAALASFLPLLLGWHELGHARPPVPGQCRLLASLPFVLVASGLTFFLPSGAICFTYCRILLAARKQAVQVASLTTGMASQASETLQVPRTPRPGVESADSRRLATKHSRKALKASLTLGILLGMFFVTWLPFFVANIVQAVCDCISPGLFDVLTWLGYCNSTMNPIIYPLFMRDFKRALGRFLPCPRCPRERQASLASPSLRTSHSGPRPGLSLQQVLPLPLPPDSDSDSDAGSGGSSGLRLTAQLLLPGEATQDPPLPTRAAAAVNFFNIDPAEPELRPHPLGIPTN
Experimental: Binding Affinity for the 5-HT6 Receptor
The assay protocol generally entailed the incubation of membranes prepared from cells expressing the 5-HT6 receptor with ^3 H-LSD (2 nM). Increasing levels of the test compound were incubated with the radioligand and the membrane homogenates prepared from the recombinant cells. After a 60 minute incubation at 37° C., the incubation was terminated by vacuum filtration. The filters were washed with buffer and the filters were counted for radioactivity using liquid scintillation spectrometry. […] Concentrations ranging from 10^-11 M to 10^-5 M of the test compound were evaluated. […] Affinity for the 5-HT6 receptor is expressed as the amount (in percent) of binding of the radioligand that is inhibited in the presence of 100 nM of test compound. A greater percent inhibition indicates greater affinity for the 5-HT6 receptor.

5HT2C receptor = target: T1, 5HT2C receptor (Homo sapiens, UniProt P28335); assay: Binding to 5HT2C receptor (selectivity); details: selectivity versus 5-HT6; read-out: percent inhibition for the 5HT2C receptor
T1 sequence (P28335 33-458): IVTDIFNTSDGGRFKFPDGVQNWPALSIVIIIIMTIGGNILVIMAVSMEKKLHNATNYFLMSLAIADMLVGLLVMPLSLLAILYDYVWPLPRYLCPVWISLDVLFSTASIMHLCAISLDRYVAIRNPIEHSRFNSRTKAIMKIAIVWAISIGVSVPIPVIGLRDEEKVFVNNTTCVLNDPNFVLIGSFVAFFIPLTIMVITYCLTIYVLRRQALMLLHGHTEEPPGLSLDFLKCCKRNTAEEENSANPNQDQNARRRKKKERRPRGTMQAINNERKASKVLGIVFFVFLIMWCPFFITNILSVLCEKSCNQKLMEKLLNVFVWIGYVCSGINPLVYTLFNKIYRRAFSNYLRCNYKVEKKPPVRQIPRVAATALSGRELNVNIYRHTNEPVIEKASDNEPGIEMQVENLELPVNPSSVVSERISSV

5-HT2A receptor = 5-HT2A receptor (Homo sapiens, UniProt P28223); assay: Binding to 5-HT2A receptor (selectivity); design: dose or concentration left out as unconfirmed; details: selectivity versus 5-HT6; read-out: percent inhibition for the 5-HT2A receptor
Sequence of 5-HT2A receptor (P28223 whole entry): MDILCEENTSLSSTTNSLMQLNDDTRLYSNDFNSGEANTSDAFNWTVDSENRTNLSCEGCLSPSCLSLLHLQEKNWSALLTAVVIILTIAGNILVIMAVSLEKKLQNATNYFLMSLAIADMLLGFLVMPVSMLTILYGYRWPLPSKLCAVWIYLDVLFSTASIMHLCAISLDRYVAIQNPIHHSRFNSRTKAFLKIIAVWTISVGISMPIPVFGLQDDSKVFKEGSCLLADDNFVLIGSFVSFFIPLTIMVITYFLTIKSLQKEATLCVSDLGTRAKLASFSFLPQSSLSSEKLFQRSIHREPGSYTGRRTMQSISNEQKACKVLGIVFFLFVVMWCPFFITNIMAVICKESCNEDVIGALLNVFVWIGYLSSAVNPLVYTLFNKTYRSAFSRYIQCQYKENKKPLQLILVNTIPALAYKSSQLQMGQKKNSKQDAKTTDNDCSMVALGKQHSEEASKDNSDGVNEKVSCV

Sequence of 5-HT7 receptor (P34969 whole entry): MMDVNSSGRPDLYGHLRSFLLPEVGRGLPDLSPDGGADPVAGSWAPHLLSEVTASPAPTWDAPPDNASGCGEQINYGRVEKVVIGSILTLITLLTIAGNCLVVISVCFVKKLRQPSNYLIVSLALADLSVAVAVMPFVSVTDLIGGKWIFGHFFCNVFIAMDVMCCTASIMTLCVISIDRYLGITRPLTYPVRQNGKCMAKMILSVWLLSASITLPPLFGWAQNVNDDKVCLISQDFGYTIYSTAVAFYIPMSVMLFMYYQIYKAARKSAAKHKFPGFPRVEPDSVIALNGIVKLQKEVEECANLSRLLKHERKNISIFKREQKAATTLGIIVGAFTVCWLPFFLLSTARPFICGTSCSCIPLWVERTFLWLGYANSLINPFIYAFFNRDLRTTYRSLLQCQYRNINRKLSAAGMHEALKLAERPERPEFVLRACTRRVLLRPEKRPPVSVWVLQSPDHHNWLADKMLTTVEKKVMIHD

Compound	inhibition (5-HT7 receptor)	inhibition at 0.1 µM (human 5HT6 receptor)	inhibition at 0.1 µM (5HT2C receptor)	inhibition (5-HT2A receptor)
O=S(=O)(c1cccc2ccccc12)n1cc(C2=CCN3CCCC3C2)c2cc(F)cc(F)c21 (racemic) [Example 6kk, 5,7-Difluoro-3-[(8a-R,S)-1,2,3,5,8,8a-hexahydro-7-indolizinyl]-1-naphthalenesulfonylindole]	< 20%	> 80%	< 20%	< 20%
O=S(=O)(c1ccc2ccccc2c1)n1cc(N2CCN3CCCCC3C2)c2ccccc21 (racemic) [Example 6l, 3-[(6-R,S)-1,4-Diaza[4.4. 0]bicyclodecan-4-yl]-1-(2-naphthalenesulfonyl)indole]	< 20%	> 80%	< 20%	< 20%
O=S(=O)(c1ccc2ccccc2c1)n1cc(C2=CCN3CCCC3C2)c2cc(F)cc(F)c21 (racemic) [Example 6ll, 5,7-Difluoro-3-[(8a-R,S)-1,2,3,5,8,8a-hexahydro-7-indolizinyl]-2-naphthalenesulfonylindole]	< 20%	> 80%	< 20%	< 20%
O=S(=O)(c1cccc2ccccc12)n1cc(N2CCN3CCCCC3C2)c2ccccc21 (racemic) [Example 6m, 3-[(6-R,S)-1,4-Diaza[4.4. 0]bicyclodecan-4-yl]-1-(1-naphthalenesulfonyl)indole]	< 20%	> 80%	< 20%	< 20%
COc1ccc2c(c1)c(C1=CCN3CCCC3C1)cn2S(=O)(=O)c1ccccc1 (racemic) [Example 6mm, 5-Methoxy-3-[(8a-R,S)-1,2,3,5,8,8a-hexahydro-7-indolizinyl]-1-phenylsulfonylindole]	< 20%	> 80%	< 20%	< 20%
O=S(=O)(c1ccc(Br)cc1)n1cc(N2CCN3CCCCC3C2)c2ccccc21 (racemic) [Example 6n, 1-(4-Bromophenylsulfonyl)-3-[(6-R,S)-1,4-diaza[4.4. 0]bicyclodecan-4-yl]indole]	< 20%	> 80%	< 20%	< 20%
COc1ccc2c(c1)c(C1=CCN3CCCC3C1)cn2S(=O)(=O)c1cccc2ccccc12 (racemic) [Example 6nn, 5-Methoxy-3-[(8a-R,S)-1,2,3,5,8,8a-hexahydro-7-indolizinyl]-1-naphthalenesulfonylindole]	< 20%	> 80%	< 20%	< 20%
COc1ccc2c(c1)c(C1=CCN3CCCC3C1)cn2S(=O)(=O)c1ccc2ccccc2c1 (racemic) [Example 6oo, 5-Methoxy-3-[(8a-R,S)-1,2,3,5,8,8a-hexahydro-7-indolizinyl]-2-naphthalenesulfonylindole]	< 20%	> 80%	< 20%	< 20%
O=S(=O)(c1ccc(Cl)cc1)n1cc(N2CCN3CCCCC3C2)c2ccccc21 (racemic) [Example 6p, 1-(4-Chlorophenylsulfonyl)-3-[(6-R,S)-1,4-diaza[4.4. 0]bicyclodecan-4-yl]indole]	< 20%	> 80%	< 20%	< 20%
Cc1ccc2c(c1)c(C1=CCN3CCCC3C1)cn2S(=O)(=O)c1ccccc1 (racemic) [Example 6pp, 5-Methyl-3-[(8a-R,S)-1,2,3,5,8,8a-hexahydro-7-indolizinyl]-1-phenylsulfonylindole]	< 20%	> 80%	< 20%	< 20%
Cc1ccc2c(c1)c(C1=CCN3CCCC3C1)cn2S(=O)(=O)c1cccc2ccccc12 (racemic) [Example 6qq, 5-Methyl-3-[(8a-R,S)-1,2,3,5,8,8a-hexahydro-7-indolizinyl]-1-naphthalenesulfonylindole]	< 20%	> 80%	< 20%	< 20%
Cc1ccc2c(c1)c(C1=CCN3CCCC3C1)cn2S(=O)(=O)c1ccc2ccccc2c1 (racemic) [Example 6rr, 5-Methyl-3-[(8a-R,S)-1,2,3,5,8,8a-hexahydro-7-indolizinyl]-2-naphthalenesulfonylindole]	< 20%	> 80%	< 20%	< 20%
Cc1cccc2c(C3=CCN4CCCC4C3)cn(S(=O)(=O)c3ccccc3)c12 (racemic) [Example 6ss, 7-Methyl-3-[(8a-R,S)-1,2,3,5,8,8a-hexahydro-7-indolizinyl]-1-phenylsulfonylindole]	< 20%	> 80%	< 20%	< 20%
Cc1cccc2c(C3=CCN4CCCC4C3)cn(S(=O)(=O)c3cccc4ccccc34)c12 (racemic) [Example 6tt, 7-Methyl-3-[(8a-R,S)-1,2,3,5,8,8a-hexahydro-7-indolizinyl]-1-naphthalenesulfonylindole]	< 20%	> 80%	< 20%	< 20%
O=S(=O)(c1ccccc1)n1cc(N2CCN3CCCCC3C2)c2ccccc21 (racemic) [Example 6u, 3-[(6-R,S)-1,4-Diaza[4.4.0]bicyclodecan-4-yl]-1-(phenylsulfonyl)indole]	< 20%	> 80%	< 20%	< 20%
O=S(=O)(c1ccc2ccccc2c1)n1cc(C2=CCN3CCCC3C2)c2cc(F)ccc21 (racemic) [Example 6z, 5-Fluoro-3-[(8a-R,S)-1,2,3,5,8,8a-hexahydro-7-indolizinyl]-1-(2-naphthalenesulfonyl)indole]	< 20%	> 80%	< 20%	< 20%
